What was measured:
[1] = system: MATBIII breast cancer cells; assay: Dynamic contrast enhanced MR tumor imaging in MATBIII tumor bearing mice; format: in vivo, SCID mice; settings: DCE MR, dose 0.2 mmol/kg Gd, Fe, mammary MBIII rodent tumor model
Experimental: Cell Preparation: MATBIII breast cells (available from ATCC®) were trypsinized using 1× trypsin-EDTA. The cells were washed using IX phosphate buffered saline (PBS) and aliquots of 2×10^6 cells were made in 1×PBS (100 uL). Prior to injection into the subject, 50 μL of basement membrane matrix (Matrigel®, BD Biosciences) was added to each aliquot.
Tumor Induction: All procedures involving animals were completed under protocols approved by the GE Global Research Institutional Animal Care and Use Committee. Female, 5-7 weeks old, SCID mice (Charles River Laboratories) were briefly anesthetized with 2% isoflurane and injected with 1×10^6 MATBIII breast cancer cells in 1×PBS (100 μL) and Matrigel SC to their left flank. The animals were monitored for 7 days post tumor cell injections at which point, precontrast agent MR images of the resulting lesions, typically 1 cm in diameter, were collected using the sequences described below.

[2] = Hydrodynamic size assay (dynamic light scattering); format: physicochemical
Experimental: The dilution was carried out to yield approximately 20,000 counts per second during the DLS measurement and the sample was allowed to equilibrate for 10 minutes in the instrument prior to data collection.

CNC[C@H](O)[C@@H](O)[C@H](O)[C@H](O)CO.CNC[C@H](O)[C@@H](O)[C@H](O)[C@H](O)CO.O=C([O-])CN(CCN(CC(=O)[O-])CC(=O)O)CCN(CC(=O)[O-])CC(=O)O.[Gd+3] [Magnevist - Gd]
Tumor-to-muscle signal enhancement ratio (Tumor: Muscle), Average [1]: 3.6
Agent size (hydrodynamic diameter) [2]: Magnevist - Gd (1 nm)

— patent publication US9155804B2, “Contrast enhancement agents and method of use thereof” (General Electric Company, priority 2012, dated 2015)
